According to article PMC4788259 (PLoS Neglected Tropical Diseases, 2016):

Tested on: E. multilocularis metacestodes
Assay: PGI assay: phosphoglucose isomerase release from damaged metacestodes
Type: cell-based, Echinococcus multilocularis
Conditions: 10 μM, 5 days, single wells, relative to DB1127 (10 μM)
Procedure, shortened: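 E. multilocularis metacestode vesicles (strain H95, grown in BALB/c mice, 2–4 mm diameter) were exposed in vitro to compounds for 5 days. Damage was read as phosphoglucose isomerase released into the medium. Initial screening used 10 μM in single wells, with 0.1% DMSO as negative control. EC50 values were derived from this read-out.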

Structure (SMILES) | PGI (% of DB1127 at 10 uM)
COc1ccc2nc(C)cc(Nc3cccc(O)c3)c2c1.Cl [MMV008212] | -12.96%
CCOc1cccc(C(=O)Nc2ccc(-c3nc4ccccc4[nH]3)cc2)c1 [MMV019202] | -27.17%
COc1ccc(CCN2CCC(CN(C)Cc3cnn(-c4ccccc4)c3)CC2)cc1 [MMV666069] | -33.62%
O=[N+]([O-])c1ccc(C=NNc2nc3ccccc3[nH]2)cc1 [MMV666607] | -48.05%
Cc1cccc(Nc2nc(N)c3ccccc3n2)c1.Cl [MMV019110] | -9.63%
COc1ccc(C=C2SC(=N)N(c3ccccc3OC)C2=O)cc1 [MMV666691] | -41.85%
COc1cccc(Cn2c(Oc3ccccc3)nc3c2c(=O)n(C)c(=O)n3C)c1 [MMV396705] | -23.91%
COCCNC(=O)c1ccc(OC2CCN(Cc3ccc(F)c(F)c3)CC2)c(Cl)c1 [MMV666072] | -116.21%
CC(C)(C)CC(C)(C)NCC(O)COc1ccc2c(c1)CCC2.Cl (centres unmarked) [MMV665817] | -44.11%
OC(Cn1nnc2ccccc21)Cn1c2ccc(Br)cc2c2cc(Br)ccc21 (centres unmarked) [MMV666025] | 1.46%
c1ccc2cc3c(Nc4ccc(N5CCOCC5)cc4)ccnc3cc2c1 [MMV006861] | -26.86%
CC1CC2=C(CC1CNCCCN(C)C)C(C)(C)CCC2 (centres unmarked) [MMV665830] | -3.36%
CC1CN(C(=O)c2sc3ccccc3c2Cl)CC(C)O1 (centres unmarked) [MMV020492] | -44.30%
COc1cc(C(=O)Nc2nc3c(cc4c5c(cccc53)CC4)s2)cc(OC)c1OC [MMV396665] | -11.85%
Cc1ccc2cc3c(N)c4c(C)ccc(C)c4nc3nc2c1 [MMV666079] | -43.85%
O=C(Nc1cccc(-c2nc3ccccc3[nH]2)c1)c1cccc(NC(=O)c2ccco2)c1 [MMV665883] | 21.02%
CCOc1ccc(N2C(N)=NC(N)=NC2(C)C)cc1.Cl [MMV667486] | -3.47%
COc1cc(C(=O)Nc2ccc(-c3nc4ccccc4[nH]3)cc2)cc(OC)c1OC [MMV665898] | -11.03%
Cc1ccc(N2C(=O)C3C(C2=O)C2(c4ccccc4)C(=O)C3(c3ccccc3)C(c3ccccc3)=C2c2ccccc2)cc1 (centres unmarked) [MMV666062] | -37.70%
O=C(Nc1ccc(CN2CCOCC2)cc1)c1ccc(-c2cc(Cl)ccc2Cl)o1 [MMV020651] | -24.05%
Cc1ccccc1OCCSc1nc2ccc(NC(=O)c3ccccc3)cc2s1 [MMV007577] | -17.47%
COC(=O)c1ccc(Cl)c2c1C1C=CCC1C(c1cccc3ccccc13)N2 (centres unmarked) [MMV667489] | 2.16%
Cc1cc(N2CCN(C3CCCC3)CC2)n2c(nc3ccccc32)c1C#N [MMV006706] | -7.43%
Cc1cc(C)cc(Nc2cc(C)nc3nc(C(F)(F)F)nn23)c1 [MMV011259] | -21.18%
CCOc1c(Br)cc(C2C(C(=O)OC)=CN(C)C=C2C(=O)OC)cc1OC [MMV006764] | -0.44%
CCOc1ccc2c(c1)CN(Cc1ccc(Cl)cc1)CO2 [MMV000443] | -40.44%
Fc1ccc2[nH]c3c(NCCCN4CCOCC4)ncnc3c2c1 [MMV019871] | -31.05%

Structure (SMILES) | PGI (% of DB1127 at 10 uM)
COc1ccc(CCn2c(=N)c(C(=O)NCc3cccnc3)cc3c(=O)n4cccc(C)c4nc32)cc1 [MMV667488] | -13.42%
CC(=O)NCCc1nc2ccccc2n1Cc1ccc(C(C)C)cc1 [MMV007617] | -2.63%
COc1ccc(Br)cc1C1Nc2ccc3ccccc3c2C2=C1C(=O)CC(c1ccccc1)C2 (centres unmarked) [MMV020885] | -45.01%
COc1ccc(-c2cc3c(nn2)-c2ccccc2C3=O)cc1 [MMV666026] | -10.04%
COc1ccccc1NC1=C(N2CCCCC2)C(=O)c2ccccc2C1=O [MMV085203] | 31.65%
COc1ccc(C2c3ccc4ccccc4c3Oc3ncn(CCCN(C)C)c(=N)c32)cc1 (centres unmarked) [MMV667491] | 39.81%
CCOC(=O)C1CCN(C(=O)CN2C(=O)c3ccccc3C2c2c[nH]c3ccccc23)CC1 (centres unmarked) [MMV011576] | -33.19%
CCCc1c(C)nc2ccccc2c1O [MMV666081] | -67.20%
COc1cc2c3cc1Oc1c(OC)c(OC)cc4c1C(Cc1ccc(O)c(c1)Oc1ccc(cc1)CC3N(C)CC2)N(C)CC4.Cl (centres unmarked) [MMV007474] | -10.35%
CN(C)CCNc1cc(-c2ccccc2)nc2ccccc12 [MMV006704] | -13.50%
CC(Oc1ccc(NC(=O)c2cccs2)cc1)C(=O)c1ccc(Cl)cc1 (centres unmarked) [MMV665886] | 2.30%
CCOC(=O)C1=CN(C)C=C(C(=O)OCC)C1c1cc(Br)c(OCC)c(OC)c1 [MMV006656] | 16.40%
COc1ccc(CCNC(=O)c2cc(S(=O)(=O)N3CC(C)CC(C)C3)ccc2Sc2ccc(F)cc2)cc1OC (centres unmarked) [MMV007557] | 14.98%
Cc1ccc(NC(=O)Nc2cccc(Cl)c2)cc1F [MMV000911] | 185.05%
O=C(CCc1ccco1)NC1CCN(CC2(c3ccc(Cl)cc3)CCC2)CC1 [MMV666108] | -18.89%
CCOC(=O)c1c(NC(=O)c2ccccc2)sc2c(O)c(CN(CC)CC)ccc12 [MMV665831] | -16.80%
CCOc1ccccc1CNC(=O)C1c2ccccc2C(=O)N(CC(C)C)C1c1cccs1 (centres unmarked) [MMV000653] | -120.29%
CN(C)c1ccc(C=Cc2nc(=O)c3ccccc3o2)cc1 [MMV006309] | 24.63%
CCN(CC)CCNc1ccnc2cc3ccccc3cc12 [MMV006303] | -4.34%
CCCOCc1cc(CN2CCN(c3cccc(Cl)c3)CC2)c(O)c2ncccc12 [MMV000787] | 45.98%
O=C(Nc1nc(-c2ccccn2)cs1)c1ccccc1Br [MMV665909] | -125.86%
O=C(NNc1cc(N2CCCC2)nc(N2CCCC2)n1)c1ccccc1 [MMV396770] | -1.95%
Cc1cc(NC(=O)C2c3ccccc3C(=O)N(CC(C)C)C2c2cccs2)no1 (centres unmarked) [MMV006429] | -37.87%
CCOC(=O)c1cn(CC)c2cc(N3CCCCC3)c(F)cc2c1=O [MMV665827] | -20.29%
Cc1ccnc(NC(c2cccc(OCc3ccccc3)c2)c2ccc3cccnc3c2O)c1 (centres unmarked) [MMV000720] | -5.36%
COc1cccc(NC(=O)Cn2c(C)c(C#N)c3ccccc32)c1 [MMV665826] | -17.93%
Cc1ccc(CN2CCC(C(=O)Nc3ccc(-c4cc5ccccc5[nH]4)cc3)CC2)o1 [MMV666071] | -52.95%

Structure (SMILES) | PGI (% of DB1127 at 10 uM)
COc1ccc(-c2nc(N3CCN(C(=O)C4CCCCC4)CC3)c3c4c(sc3n2)CCCC4)cc1 [MMV396594] | -22.30%
CC(C)=CCN1CCC(C(=O)Nc2ccc(-c3nc4ccccc4[nH]3)cc2)CC1 [MMV665946] | -26.45%
C=C(C)CCC(C)N1CCC(N2CCC(C(=O)NCCc3ccccc3)CC2)CC1 (centres unmarked) [MMV666110] | -25.44%
OC(CNC1CCCC1)Cn1c2ccccc2c2ccccc21 (centres unmarked) [MMV000848] | 6.03%
COc1ccc(C2=C(c3ccc(OC)cc3)C3(c4ccccc4)C(=O)C2(c2ccccc2)C2C(=O)N(c4ccc(C)cc4)C(=O)C23)cc1 (centres unmarked) [MMV666101] | -51.33%
COc1ccc(C(=O)NC(c2ccccc2Cl)c2cc(Cl)c3cccnc3c2O)cc1 (centres unmarked) [MMV666022] | 259.47%
Cc1nc2ccccc2c(O)c1CC=C(Cl)Cl [MMV665994] | 45.96%
CCOc1ccc(CCNC(=O)c2cccs2)cc1OCC [MMV007978] | -3.44%
COc1ccc(-n2ccnc2SCC(=O)Nc2cc(C)ccc2C)c(OC)c1 [MMV019258] | -33.26%
CCCCc1ccc(NS(=O)(=O)c2cc3c4c(c2)CCN4C(=O)CC3)cc1 [MMV001255] | -110.46%
CCCCCCOC(=O)C1=C(C)NC(=O)NC1c1ccccc1F (centres unmarked) [MMV007686] | -24.58%
O=C(NC1CCN(Cc2ccccc2)CC1)c1cc(-c2cccnc2)nc2ccc(Cl)cc12 [MMV020490] | -15.64%
CCn1c(CN2CCN(Cc3ccccc3)CC2)nc2cc(NC(=O)c3cccs3)ccc21 [MMV020439] | -13.64%
c1ccc2c(NCCc3c[nH]c4ccccc34)c3ccccc3nc2c1 [MMV006513] | 41.08%
CC1=C(CC(=O)c2cccc([N+](=O)[O-])c2)C(=O)c2ccccc2C1=O [MMV666125] | -2.81%
CN1C=C(c2ccc3ccccc3n2)C(c2c[nH]c3ccccc23)c2ccccc21 (centres unmarked) [MMV008160] | -2.32%
Oc1ccc(Br)cc1CN1CCN(Cc2ccc(Cl)cc2)CC1 [MMV665809] | -23.13%
O=C(CSc1ccc2nnc(-c3cccc(F)c3)n2n1)Nc1ccc2c(c1)OCO2 [MMV665918] | -24.34%
COc1ccc(/C=C2/SC(=Nc3ccccc3)NC2=O)cc1 [MMV665836] | -11.27%
CCOc1cc(Cl)c(C(C)NC(=O)c2cccc(OC)c2)cc1OCC (centres unmarked) [MMV665803] | -50.18%
Cc1ccc2nc(C)cc(Nc3cccc(C(F)(F)F)c3)c2c1.Cl [MMV000326] | 7.52%
Oc1ccc(Cl)cc1CNc1nc2ccccc2[nH]1 [MMV665850] | -85.60%
COc1ccc(CN2CCN(Cc3ccccc3)CC2)c(O)c1 [MMV665944] | -7.26%
CCOC(=O)C1=C(c2ccccc2)N=c2sc(=Cc3cc(C)n(-c4ccc(F)cc4)c3C)c(=O)n2C1c1cccc(OC)c1OC (centres unmarked) [MMV666601] | -52.06%
Cc1ccc(CSCc2ccc(C(=O)NC3CC3)o2)cc1 [MMV007571] | -9.42%
CCCCN(CCCC)S(=O)(=O)c1ccc(NC(=O)c2ccco2)cc1 [MMV007881] | -23.46%
